US9199959B2, “HIV replication inhibitor” (Shionogi & Co., Ltd., priority 2011, dated 2015)

What was measured:
[1] = test system: HIV (HTLV-III B strain); assay: HIV replication inhibition assay (MTT, MT-4 cells); format: cell-based; conditions: Human immunodeficiency virus 1, MT4, 96 h, four days culture, concentration at which cell cytotoxicity by virus is inhibited 50%
Protocol: HIV (HTLV-III B strain) persistent infected human T cell strain Molt-4 clone 8 was cultured in 10% Fetal Bovine Serum-containing RPMI-1640 medium and the supernatant was filtrated, then the virus titer was measured and the solution was stored at −80° C. Each anti-human immunodeficiency virus active substance was diluted with the above cultured medium to the designated concentration, which was dispensed into 96 well micro plate by 50 μL. Next, a MT-4 cell suspended liquid was dispensed by 100 μL (2.5×10^4 cells), then the above HIV-containing supernatant diluted with the above cultured medium was added thereto by 50 μL (60 pfu (plaque forming unit)).
The obtained mixture was cultured at 37° C. in CO2 incubator for four days, then 3-(4,5-dimehylthiazole-2-yl)-2,5-diphenyltetrazolynium bromide (MTT) 5 mg/mL in PBS was added to each well by 30 μL, followed by 1 hr-cultivation. In this step, as formazan was precipitated by reduction of MTT in living cells, the cell supernatant was removed from all well by 150 μL, then a 150 μL of solution (10% Triton X-100 and […]) was added thereto, followed by shaking with a plate mixer, to elute formazan. The formazan was measured with a microreader at OD: 560 nm and 690 nm (wavelength) and the result was compared with the reference. EC50 means the compound concentration at which cell cytotoxicity by virus is inhibited 50%.

[2] = molecular target: T1, CYP1A2 (Homo sapiens, UniProt P05177); assay: CYP inhibition assay, 7-ethoxyresorufin O-deethylation; format: in vitro ADME; conditions: pooled human liver microsomes, probe 7-ethoxyresorufin (O-deethylation), 0.5 μmol/L, pooled human hepatic microsome
T1 construct: enzyme, pooled human hepatic microsome 0.2 mg protein/mL; from tissue; host or cells: pooled human liver microsomes
T1 sequence (P05177 1-516): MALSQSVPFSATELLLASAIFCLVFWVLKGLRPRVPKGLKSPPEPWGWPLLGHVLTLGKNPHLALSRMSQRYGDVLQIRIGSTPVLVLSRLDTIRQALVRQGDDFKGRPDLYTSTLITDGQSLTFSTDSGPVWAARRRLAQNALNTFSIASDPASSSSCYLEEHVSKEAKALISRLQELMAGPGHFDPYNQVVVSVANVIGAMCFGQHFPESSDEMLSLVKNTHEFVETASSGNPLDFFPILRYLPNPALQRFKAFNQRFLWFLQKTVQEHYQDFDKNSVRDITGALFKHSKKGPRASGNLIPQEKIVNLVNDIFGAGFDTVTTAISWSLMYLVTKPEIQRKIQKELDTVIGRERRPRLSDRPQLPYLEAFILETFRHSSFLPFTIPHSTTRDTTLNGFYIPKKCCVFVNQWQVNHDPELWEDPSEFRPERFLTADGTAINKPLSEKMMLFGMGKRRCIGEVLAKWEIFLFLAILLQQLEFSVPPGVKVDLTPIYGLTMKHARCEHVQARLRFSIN
Protocol: (§1) Using commercially available pooled human hepatic microsome, and employing, as markers, 7-ethoxyresorufin O-deethylation (CYP1A2), tolbutamide methyl-hydroxylation (CYP2C9), mephenytoin 4′-hydroxylation (CYP2C19), dextromethorphan O-demethylation (CYP2D6), and terfenedine hydroxylation (CYP3A4) as typical substrate metabolism reactions of human main five CYP enzyme forms (CYP1A2, 2C9, 2C19, 2D6, 3A4), an inhibitory degree of each metabolite production amount by a test compound was assessed.
(§2) The reaction conditions were as follows: substrate, 0.5 μmol/L ethoxyresorufin (CYP1A2), 100 μmol/L tolbutamide (CYP2C9), 50 μmol/L S-mephenytoin (CYP2C19), 5 μmol/L dextromethorphan (CYP2D6), 1 μmol/L terfenedine (CYP3A4); reaction time, 15 minutes; reaction temperature, 37° C.; enzyme, pooled human hepatic microsome 0.2 mg protein/mL; test drug concentration, 1, 5, 10, 20 μmol/L (four points).
(§3) Each five kinds of substrates, human hepatic microsome, and a test drug in 50 mmol/L Hepes buffer as a reaction solution was added to a 96-well plate as the composition as described above, NADPH, as a cofactor was added to initiate metabolism reactions as markers and, after the incubation at 37° C. for 15 minutes, a methanol/acetonitrile=1/1 (v/v) solution was added to stop the reaction. After the centrifugation at 3000 rpm for 15 minutes, resorufin (CYP1A2 metabolite) in the supernatant was quantified by a fluorescent multilabel counter and tolbutamide hydroxide (CYP2C9 metabolite), mephenytoin 4′ hydroxide (CYP2C19 metabolite), dextrorphan (CYP2D6 metabolite), and terfenadine alcohol (CYP3A4 metabolite) were quantified by LC/MS/MS.
(§4) A reaction system containing only DMSO which is a solvent for dissolving a drug was adopted as a control (100%), and the remaining activity (%) was calculated, then IC50 was calculated by reverse presumption with a logistic model using a concentration and an inhibition rate.

[3] = molecular target: T2, CYP3A4 (Homo sapiens, UniProt P08684); assay: CYP inhibition assay, terfenedine hydroxylation; format: in vitro ADME; conditions: pooled human liver microsomes, probe terfenedine (hydroxylation), 1 μmol/L, pooled human hepatic microsome
T2 construct: enzyme, pooled human hepatic microsome 0.2 mg protein/mL; from tissue; host or cells: pooled human liver microsomes
T2 sequence (P08684 whole entry): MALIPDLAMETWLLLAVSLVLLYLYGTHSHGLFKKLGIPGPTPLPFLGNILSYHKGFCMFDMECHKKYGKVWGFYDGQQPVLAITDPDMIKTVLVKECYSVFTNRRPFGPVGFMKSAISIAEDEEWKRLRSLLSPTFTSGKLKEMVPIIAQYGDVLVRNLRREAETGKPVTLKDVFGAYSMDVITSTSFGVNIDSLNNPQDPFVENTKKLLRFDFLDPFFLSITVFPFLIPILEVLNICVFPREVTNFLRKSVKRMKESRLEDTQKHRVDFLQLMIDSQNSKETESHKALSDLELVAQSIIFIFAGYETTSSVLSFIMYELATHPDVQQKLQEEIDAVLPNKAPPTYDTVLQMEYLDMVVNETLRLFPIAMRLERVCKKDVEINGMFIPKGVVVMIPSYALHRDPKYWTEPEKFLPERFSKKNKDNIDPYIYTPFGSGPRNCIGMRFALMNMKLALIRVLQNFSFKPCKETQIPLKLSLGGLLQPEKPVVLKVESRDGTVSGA
Protocol: as §1, §2, §3, §4

[4] = Solubility test, 1% DMSO addition, artificial intestinal juice pH 6.8; format: physicochemical; conditions: artificial intestinal juice with 1% DMSO, fassgf or other biorelevant, kinetic from dmso stock; pH 6.8, 1% DMSO addition, 16 hours at 25° C.
Protocol: The solubility of each compound was determined under 1% DMSO addition conditions. A 10 mmol/L solution of the compound was prepared with DMSO, and 6 μL of the solution was added to 594 μL of an artificial intestinal juice (water and a 118 mL solution of 0.2 mol/L NaOH reagent are added to 250 mL of 0.2 mol/L potassium dihydrogen phosphate reagent to reach 1000 mL) with a pH of 6.8. The mixture is left standing for 16 hours at 25° C., and the mixture is vacuum-filtered. The filtrate is two-fold diluted with methanol/water=1/1 (v/v), and the compound concentration in the filtrate is measured with HPLC or LC/MS/MS by the absolute calibration method.

CC(=O)Nc1c(C)c(C(OC(C)(C)C)C(=O)O)c(-c2ccc(C)c(C)c2)c(C)c1-c1ccc(C)c(C)c1 (stereo not shown) [Compound I-6]
EC50 [1]: 0.0078 µM
IC50 at 15 min [2]: ≥ 20 µM
IC50 at 15 min [3]: ≥ 20 µM
solubility at 16 h [4]: ≥ 50 µM
